Measured values reported in ChEMBL document CHEMBL6109074 (Bioorg Med Chem, 2025).
Structures can show the parent of a compound that is named as a salt. The source made the active and inactive calls. The rule behind the calls is not given here.

What was measured:
[1] = Inhibition of HIF transcriptional activity in human HeLa cells harbouring HRE-luc preincubated for 1 hr under normoxic condition followed by 8 hrs incubation under hypoxic condition by luciferase reporter assay; format: cell-based
[2] = target: Histone acetyltransferase p300 (Homo sapiens, UniProt Q09472); assay: Inhibition of p300 CH1 domain (unknown origin) by tryptophan fluorescence spectroscopy analysis
Sequence of Histone acetyltransferase p300 (Q09472 whole entry, the tested form may be a part): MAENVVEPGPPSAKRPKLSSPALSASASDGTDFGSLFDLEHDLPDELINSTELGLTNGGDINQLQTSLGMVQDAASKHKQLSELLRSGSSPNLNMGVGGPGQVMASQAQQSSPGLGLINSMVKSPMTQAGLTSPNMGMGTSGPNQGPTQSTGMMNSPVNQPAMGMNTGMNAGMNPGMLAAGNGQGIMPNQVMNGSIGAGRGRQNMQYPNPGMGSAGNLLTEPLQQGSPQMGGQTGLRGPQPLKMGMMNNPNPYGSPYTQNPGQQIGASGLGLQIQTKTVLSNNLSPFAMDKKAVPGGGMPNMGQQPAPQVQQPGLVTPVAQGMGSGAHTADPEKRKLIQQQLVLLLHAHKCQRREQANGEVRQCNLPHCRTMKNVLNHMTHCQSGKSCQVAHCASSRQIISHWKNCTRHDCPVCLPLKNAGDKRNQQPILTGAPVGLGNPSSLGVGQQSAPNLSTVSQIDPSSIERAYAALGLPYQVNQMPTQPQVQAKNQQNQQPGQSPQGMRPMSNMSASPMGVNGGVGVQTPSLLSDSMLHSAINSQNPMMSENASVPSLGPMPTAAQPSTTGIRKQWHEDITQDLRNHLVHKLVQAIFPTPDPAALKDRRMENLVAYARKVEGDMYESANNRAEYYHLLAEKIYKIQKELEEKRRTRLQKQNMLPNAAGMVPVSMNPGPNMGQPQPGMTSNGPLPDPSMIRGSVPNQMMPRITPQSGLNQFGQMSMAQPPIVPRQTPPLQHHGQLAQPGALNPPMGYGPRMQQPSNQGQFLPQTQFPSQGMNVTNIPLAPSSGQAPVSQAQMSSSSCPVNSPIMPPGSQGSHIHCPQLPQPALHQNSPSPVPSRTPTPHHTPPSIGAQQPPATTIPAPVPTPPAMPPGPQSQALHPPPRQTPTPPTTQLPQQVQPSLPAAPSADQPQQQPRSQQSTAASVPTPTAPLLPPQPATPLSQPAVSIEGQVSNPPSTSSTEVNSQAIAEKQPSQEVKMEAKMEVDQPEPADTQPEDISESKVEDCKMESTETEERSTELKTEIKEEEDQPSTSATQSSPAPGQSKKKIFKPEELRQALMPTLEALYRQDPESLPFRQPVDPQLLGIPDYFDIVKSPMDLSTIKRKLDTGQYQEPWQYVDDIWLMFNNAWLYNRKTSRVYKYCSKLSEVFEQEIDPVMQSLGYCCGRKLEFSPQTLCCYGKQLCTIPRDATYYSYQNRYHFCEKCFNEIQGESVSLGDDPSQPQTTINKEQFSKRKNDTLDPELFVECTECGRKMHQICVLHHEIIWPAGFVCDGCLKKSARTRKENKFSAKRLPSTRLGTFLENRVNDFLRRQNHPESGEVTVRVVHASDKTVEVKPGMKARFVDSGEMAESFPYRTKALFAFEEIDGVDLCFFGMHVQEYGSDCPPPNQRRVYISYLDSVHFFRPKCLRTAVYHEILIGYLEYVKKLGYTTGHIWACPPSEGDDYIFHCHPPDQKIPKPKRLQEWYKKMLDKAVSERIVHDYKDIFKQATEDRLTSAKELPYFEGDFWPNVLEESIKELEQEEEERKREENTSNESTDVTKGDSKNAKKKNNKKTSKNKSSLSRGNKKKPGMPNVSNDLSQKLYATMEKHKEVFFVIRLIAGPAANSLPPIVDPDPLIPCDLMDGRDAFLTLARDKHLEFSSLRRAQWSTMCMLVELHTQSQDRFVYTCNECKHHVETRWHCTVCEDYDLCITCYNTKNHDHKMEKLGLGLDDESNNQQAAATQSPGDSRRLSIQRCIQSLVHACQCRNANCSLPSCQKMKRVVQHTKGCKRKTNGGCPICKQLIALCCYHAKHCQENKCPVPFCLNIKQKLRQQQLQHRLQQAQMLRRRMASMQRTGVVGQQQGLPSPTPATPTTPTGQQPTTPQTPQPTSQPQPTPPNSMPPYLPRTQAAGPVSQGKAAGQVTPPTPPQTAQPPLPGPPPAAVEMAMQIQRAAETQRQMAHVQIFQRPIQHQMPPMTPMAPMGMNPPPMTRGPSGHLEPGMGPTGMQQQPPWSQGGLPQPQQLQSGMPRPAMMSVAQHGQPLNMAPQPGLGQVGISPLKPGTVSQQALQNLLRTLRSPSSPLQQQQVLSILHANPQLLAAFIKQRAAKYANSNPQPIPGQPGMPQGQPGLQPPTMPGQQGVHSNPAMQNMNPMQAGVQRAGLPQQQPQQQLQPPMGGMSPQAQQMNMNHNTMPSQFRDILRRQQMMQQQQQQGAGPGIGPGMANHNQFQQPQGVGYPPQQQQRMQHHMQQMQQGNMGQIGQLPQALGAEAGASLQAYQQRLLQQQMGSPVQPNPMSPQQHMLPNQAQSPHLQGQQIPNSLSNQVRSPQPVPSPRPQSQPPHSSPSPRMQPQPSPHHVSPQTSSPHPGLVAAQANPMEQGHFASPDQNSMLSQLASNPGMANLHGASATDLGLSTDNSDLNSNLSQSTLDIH

[3] = target: T1, Histone acetyltransferase p300/Hypoxia-inducible factor 1-alpha (Homo sapiens, UniProt Q09472+Q16665); assay: Inhibition of HIF-1alpha(unknown origin)/human p300 CH1 domain (323 to 423 residues) PPI extracted from Escherichia coli incubated for 1 hr by SpectraMax iD5 MultiMode microplate reader analysis; format: protein-complex assay
T1 sequence (Q09472 whole entry, the tested form may be a part): as above
T1 sequence (Q16665 whole entry, the tested form may be a part): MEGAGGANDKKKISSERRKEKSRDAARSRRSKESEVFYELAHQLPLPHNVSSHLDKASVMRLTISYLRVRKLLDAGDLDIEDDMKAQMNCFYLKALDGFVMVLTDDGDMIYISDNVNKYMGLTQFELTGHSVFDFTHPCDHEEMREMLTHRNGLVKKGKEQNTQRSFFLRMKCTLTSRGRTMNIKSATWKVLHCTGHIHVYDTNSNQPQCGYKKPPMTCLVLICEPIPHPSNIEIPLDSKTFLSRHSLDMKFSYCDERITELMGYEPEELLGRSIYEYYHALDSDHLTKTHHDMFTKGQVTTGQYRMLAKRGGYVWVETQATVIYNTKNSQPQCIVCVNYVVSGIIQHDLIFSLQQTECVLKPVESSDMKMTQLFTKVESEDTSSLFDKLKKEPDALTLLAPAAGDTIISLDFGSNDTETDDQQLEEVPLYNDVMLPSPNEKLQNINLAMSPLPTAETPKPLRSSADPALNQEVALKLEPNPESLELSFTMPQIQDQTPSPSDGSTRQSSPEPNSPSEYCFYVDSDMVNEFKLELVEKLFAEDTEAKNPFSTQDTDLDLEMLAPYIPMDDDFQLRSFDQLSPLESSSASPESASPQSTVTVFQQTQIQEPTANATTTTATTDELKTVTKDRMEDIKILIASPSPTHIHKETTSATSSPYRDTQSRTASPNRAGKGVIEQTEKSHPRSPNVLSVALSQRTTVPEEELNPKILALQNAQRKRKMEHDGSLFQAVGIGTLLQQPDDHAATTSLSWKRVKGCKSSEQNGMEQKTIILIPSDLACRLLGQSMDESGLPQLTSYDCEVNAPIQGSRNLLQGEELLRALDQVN

[4] = system: HeLa; assay: Effect on HIF-1alpa protein expression in human HeLa cells at 1 to 100 uM incubated under hypoxia condition for 8 hrs by Western blot analysis; format: functional, cell-based; details: dose 1-100 µM
[5] = system: HeLa; assay: Effect on HIF-1alpa mRNA expression in human HeLa cells at 1 to 100 uM incubated under hypoxia condition for 8 hrs by real-time analysis; format: functional, cell-based; details: dose 1-100 µM
[6] = system: HeLa; assay: Downregulation of CAIX mRNA expression in human HeLa cells at 1 to 100 uM incubated under hypoxia condition for 8 hrs by real-time analysis; format: functional, cell-based; details: dose 1-100 µM
[7] = system: HeLa; assay: Downregulation of BAX mRNA expression in human HeLa cells at 1 to 100 uM incubated under hypoxia condition for 8 hrs by RT-PCR analysis; format: functional, cell-based; details: dose 1-100 µM
[8] = system: HeLa; assay: Effect on p53 mRNA expression in human HeLa cells at 1 to 100 uM incubated under hypoxia condition for 8 hrs by RT-PCR analysis; format: functional, cell-based; details: dose 1-100 µM
[9] = system: HeLa; assay: Downregulation of c-MYC mRNA expression in human HeLa cells at 1 to 100 uM incubated under hypoxia condition for 8 hrs by RT-PCR analysis; format: functional, cell-based; details: dose 1-100 µM
[10] = system: HeLa; assay: Effect on STAT3 mRNA expression in human HeLa cells at 1 to 100 uM incubated under hypoxia condition for 8 hrs by RT-PCR analysis; format: functional, cell-based; details: dose 1-100 µM
[11] = target: T1, Histone acetyltransferase p300/Hypoxia-inducible factor 1-alpha; assay: Inhibition of HIF-1alpha/p300 PPI (unknown origin); format: protein-complex assay

C[C@@]12C(=O)OC(=O)[C@]1(C)[C@H]1CC[C@@H]2O1 [CANTHARIDIN]
IC50 [1]: 5.63 µM

CC(C)C[C@@H]1NCCN([C@@H](CC(C)C)C(=O)N2CCN([C@@H](CCC(N)=O)C(N)=O)C(=O)[C@@H]2C)C1=O
IC50 [2]: 0.53 µM | IC50 [3]: 0.0513 µM

Fc1ccc(C(c2ccc(F)cc2)N2CCN(C/C=C/c3ccccc3)CC2)cc1 [FLUNARIZINE HYDROCHLORIDE]
IC50 [1]: 9.01 µM

O=C(Nc1ccc([N+](=O)[O-])cc1Cl)c1cc(Cl)ccc1O
Activity [4]: inactive | Activity [5]: inactive | Activity [6]: Active | Activity [7]: Active | Activity [8]: inactive | Activity [9]: Active | Activity [10]: inactive

COC1=C(N)C(=O)c2nc(-c3nc(C(=O)O)c(C)c(-c4ccc(OC)c(OC)c4O)c3N)ccc2C1=O [STREPTONIGRIN]
IC50 [3]: 1.38 µM

COC(=O)c1ccc(O)c(NC(=O)COc2ccc(C34CC5CC(CC(C5)C3)C4)cc2)c1
IC50 [11]: 4.4 µM

OCCN1CCN(CCCN2c3ccccc3Sc3ccc(Cl)cc32)CC1 [PERPHENAZINE]
IC50 [1]: 14.3 µM | Activity [4]: inactive

[N-]=[N+]=Nc1cc(O)c(C(=O)Nc2ccc([N+](=O)[O-])cc2Cl)cc1Cl
Activity [4]: inactive
